We go through twelve compounds from patent US20260092071A1, “COMPOUNDS AND COMPOSITIONS AS SMARCA2/4 DEGRADERS AND USES THEREOF” (REGENTS OF THE UNIVERSITY OF MICHIGAN, priority 2022, published 2026).

The target of one assay is SMARCA4 (Homo sapiens, UniProt P51532). As to the kind of experiment: HiBit assay in engineered HT1080 CRISPR knock-in cell, 6 hrs (B series), SMARCA4. In kind it is cell-based. As to conditions: 6 hrs incubation; for DC50: read-out: SMARC A4 HT1080 HiBit DC50; for Dmax: HT-1080, HT1080 CRISPR knock-in cells, read-out: SMARC A4 HT1080 HiBit Dmax(%). The method, boiled down:
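Compounds were dispensed first, then HT1080 knock-in cells added and incubated for 6 hrs at 37° C. Next, detection reagent containing LgBiT and lytic substrate was added. Plates were shaken 10 min and centrifuged, and luminescence was measured.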

The target of the next assay is SMARCA2 (Homo sapiens, UniProt P51531). As to the kind of experiment: HiBit assay in engineered HT1080 CRISPR knock-in cell, 6 hrs (B series), SMARCA2. In kind it is cell-based. As to conditions: 6 hrs incubation; for DC50: read-out: SMARC A2 HT1080 HiBit DC50; for Dmax: HT-1080, HT1080 CRISPR knock-in cells, read-out: SMARC A2 HT1080 HiBit Dmax (%). The method, boiled down:
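HT1080 CRISPR knock-in cells carrying the HiBiT tag were seeded onto compounds (final DMSO 0.1%) and incubated 6 hrs at 37° C, 5% CO2. Remaining tagged protein was detected by lytic HiBiT luminescence after adding LgBiT protein and substrate, with LgBiT-free wells serving as negative control.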

Chain of SMARCA4 (P51532 whole entry): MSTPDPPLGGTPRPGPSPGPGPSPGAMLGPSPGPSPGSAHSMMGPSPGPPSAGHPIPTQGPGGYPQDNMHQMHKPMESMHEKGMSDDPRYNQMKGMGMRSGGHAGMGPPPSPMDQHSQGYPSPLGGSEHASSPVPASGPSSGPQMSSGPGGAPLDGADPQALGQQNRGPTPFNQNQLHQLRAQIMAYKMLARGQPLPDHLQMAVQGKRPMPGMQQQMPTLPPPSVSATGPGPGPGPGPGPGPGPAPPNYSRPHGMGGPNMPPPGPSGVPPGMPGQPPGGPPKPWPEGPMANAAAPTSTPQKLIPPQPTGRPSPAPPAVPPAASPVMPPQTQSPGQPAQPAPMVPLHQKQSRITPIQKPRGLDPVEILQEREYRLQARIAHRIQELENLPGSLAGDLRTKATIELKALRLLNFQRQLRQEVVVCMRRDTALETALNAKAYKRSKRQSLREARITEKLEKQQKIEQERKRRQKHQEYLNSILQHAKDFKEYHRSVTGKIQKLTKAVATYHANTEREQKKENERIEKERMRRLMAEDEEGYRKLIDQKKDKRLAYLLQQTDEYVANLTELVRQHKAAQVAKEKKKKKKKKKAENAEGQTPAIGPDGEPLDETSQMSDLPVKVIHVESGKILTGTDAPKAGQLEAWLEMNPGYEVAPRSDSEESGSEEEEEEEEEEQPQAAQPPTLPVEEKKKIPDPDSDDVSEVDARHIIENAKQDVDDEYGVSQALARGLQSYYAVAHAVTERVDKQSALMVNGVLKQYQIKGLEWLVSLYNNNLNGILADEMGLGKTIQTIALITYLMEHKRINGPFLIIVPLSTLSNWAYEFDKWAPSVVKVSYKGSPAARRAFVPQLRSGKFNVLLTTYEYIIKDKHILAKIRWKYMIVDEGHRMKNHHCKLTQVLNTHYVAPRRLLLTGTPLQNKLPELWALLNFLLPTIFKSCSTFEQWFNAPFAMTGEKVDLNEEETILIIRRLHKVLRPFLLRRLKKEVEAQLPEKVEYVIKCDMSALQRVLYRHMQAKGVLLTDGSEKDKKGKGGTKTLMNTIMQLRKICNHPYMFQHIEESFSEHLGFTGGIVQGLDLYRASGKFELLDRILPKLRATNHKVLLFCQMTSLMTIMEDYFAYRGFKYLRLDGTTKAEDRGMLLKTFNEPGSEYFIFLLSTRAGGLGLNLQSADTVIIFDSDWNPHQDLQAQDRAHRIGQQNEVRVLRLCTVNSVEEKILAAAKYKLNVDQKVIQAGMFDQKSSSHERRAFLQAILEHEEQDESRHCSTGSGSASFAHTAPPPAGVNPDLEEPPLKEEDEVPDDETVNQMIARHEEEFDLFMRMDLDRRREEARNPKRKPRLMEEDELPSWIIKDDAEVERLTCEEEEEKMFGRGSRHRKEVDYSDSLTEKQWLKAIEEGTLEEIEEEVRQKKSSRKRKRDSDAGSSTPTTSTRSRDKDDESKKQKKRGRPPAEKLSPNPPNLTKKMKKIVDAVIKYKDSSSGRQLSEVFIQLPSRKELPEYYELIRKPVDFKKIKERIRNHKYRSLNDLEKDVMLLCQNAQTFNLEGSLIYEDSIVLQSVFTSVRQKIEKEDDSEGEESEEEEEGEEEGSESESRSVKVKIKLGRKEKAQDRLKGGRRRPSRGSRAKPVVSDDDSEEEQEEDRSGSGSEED
Chain of SMARCA2 (P51531 whole entry): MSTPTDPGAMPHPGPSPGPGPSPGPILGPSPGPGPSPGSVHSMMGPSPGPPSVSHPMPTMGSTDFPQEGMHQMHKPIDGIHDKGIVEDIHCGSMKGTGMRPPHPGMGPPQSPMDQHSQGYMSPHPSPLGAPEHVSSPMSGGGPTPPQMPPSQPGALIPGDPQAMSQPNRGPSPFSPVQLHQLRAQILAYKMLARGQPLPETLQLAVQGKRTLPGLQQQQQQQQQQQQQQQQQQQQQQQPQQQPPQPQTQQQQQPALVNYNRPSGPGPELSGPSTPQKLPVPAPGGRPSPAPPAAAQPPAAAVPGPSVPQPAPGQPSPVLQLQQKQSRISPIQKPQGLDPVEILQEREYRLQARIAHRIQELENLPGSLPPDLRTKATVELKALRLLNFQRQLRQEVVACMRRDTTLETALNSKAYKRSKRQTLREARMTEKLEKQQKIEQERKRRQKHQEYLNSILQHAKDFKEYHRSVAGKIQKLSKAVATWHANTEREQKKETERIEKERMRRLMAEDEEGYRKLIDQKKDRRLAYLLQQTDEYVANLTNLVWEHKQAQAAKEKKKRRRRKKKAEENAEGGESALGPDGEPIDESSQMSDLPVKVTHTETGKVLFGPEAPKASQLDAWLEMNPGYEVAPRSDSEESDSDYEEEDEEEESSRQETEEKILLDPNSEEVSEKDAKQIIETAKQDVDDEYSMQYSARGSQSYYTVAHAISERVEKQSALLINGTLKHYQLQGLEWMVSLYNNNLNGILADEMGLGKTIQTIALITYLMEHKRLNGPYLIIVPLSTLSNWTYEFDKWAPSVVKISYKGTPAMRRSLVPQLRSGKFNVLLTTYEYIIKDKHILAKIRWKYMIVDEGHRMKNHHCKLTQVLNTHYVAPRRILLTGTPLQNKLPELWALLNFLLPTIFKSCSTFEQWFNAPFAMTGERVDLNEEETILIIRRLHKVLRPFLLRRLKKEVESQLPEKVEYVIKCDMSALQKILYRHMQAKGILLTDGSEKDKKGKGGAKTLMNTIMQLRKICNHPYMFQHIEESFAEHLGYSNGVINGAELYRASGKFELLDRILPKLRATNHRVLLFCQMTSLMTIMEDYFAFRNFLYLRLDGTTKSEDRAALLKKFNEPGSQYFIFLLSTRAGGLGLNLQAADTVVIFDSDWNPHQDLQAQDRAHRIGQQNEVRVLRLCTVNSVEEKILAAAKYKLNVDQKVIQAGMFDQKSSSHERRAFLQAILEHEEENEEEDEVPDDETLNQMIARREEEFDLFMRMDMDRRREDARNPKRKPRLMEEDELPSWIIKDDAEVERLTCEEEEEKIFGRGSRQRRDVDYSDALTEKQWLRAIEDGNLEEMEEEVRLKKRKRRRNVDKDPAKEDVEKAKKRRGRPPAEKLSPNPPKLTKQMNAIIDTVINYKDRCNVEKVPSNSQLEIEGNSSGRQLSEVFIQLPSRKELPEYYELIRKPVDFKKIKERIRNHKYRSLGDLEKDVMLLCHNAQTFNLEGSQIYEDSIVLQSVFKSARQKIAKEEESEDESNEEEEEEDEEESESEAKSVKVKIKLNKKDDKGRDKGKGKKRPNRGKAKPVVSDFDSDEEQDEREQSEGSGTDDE

Turning to `C[C@H](NC(=O)[C@@H]1C[C@@H](O)CN1C(=O)[C@@H](NC(=O)[C@H]1CC[C@H](C(=O)N2CCC(c3ccc4c(c3)-n3c(nc(=O)c5c(Cl)cccc53)C4(C)C)CC2)CC1)C(C)(C)C)c1ccc(-c2ncnn2C)cc1` [Compound B65, (2S,4R)-1-((S)-2-((1r,4S)-4-(4-(4-chloro-7,7-dimethyl-5-oxo-5,7-dihydroindolo[1,2-a]quinazolin-10-yl)piperidine-1-carbonyl)cyclohexane-1-carboxamido)-3,3-dimethylbutanoyl)-4-hydroxy-N-((S)-1-(4-(1-methyl-1H-1,2,4-triazol-5-yl)phenyl)ethyl)pyrrolidine-2-carboxamide], the results for the DC50 on SMARCA4 (HT1080 CRISPR knock-in cells) and at SMARCA2 (HT1080 CRISPR knock-in cells) were over 1000 nM and 100 to 500 nM, respectively. Further, the Dmax on SMARCA4 and at SMARCA2 was under 50% in each case.
Turning to `Cc1ncsc1-c1ccc([C@H](C)NC(=O)[C@@H]2C[C@@H](O)CN2C(=O)[C@H](C(C)C)n2cc(C3CCN(CCCN4CCC(c5ccc6c(c5)-n5c(nc(=O)c7c(Cl)cccc75)C6(C)C)CC4)CC3)nn2)cc1` [Compound B66, (2S,4R)-1-((S)-2-(4-(1-(3-(4-(4-chloro-7,7-dimethyl-5-oxo-5,7-dihydroindolo[1,2-a]quinazolin-10-yl)piperidin-1-yl)propyl)piperidin-4-yl)-1H-1,2,3-triazol-1-yl)-3-methylbutanoyl)-4-hydroxy-N—((S)-1-(4-(4-methylthiazol-5-yl)phenyl)ethyl)pyrrolidine-2-carboxamide], the DC50 at SMARCA4 (HT1080 CRISPR knock-in cells) and on SMARCA2 (HT1080 CRISPR knock-in cells) was under 100 nM in each case. Moreover, the Dmax at SMARCA4 and at SMARCA2 was over 90% in each case.
On to `Cc1ncsc1-c1ccc([C@H](C)NC(=O)[C@@H]2C[C@@H](O)CN2C(=O)[C@H](C(C)C)n2cc(C3CCN(CCN4CCC(c5ccc6c(c5)-n5c(nc(=O)c7c(Cl)cccc75)C6(C)C)CC4)CC3)nn2)cc1` [Compound B67, (2S,4R)-1-((S)-2-(4-(1-(2-(4-(4-chloro-7,7-dimethyl-5-oxo-5,7-dihydroindolo[1,2-a]quinazolin-10-yl)piperidin-1-yl)ethyl)piperidin-4-yl)-1H-1,2,3-triazol-1-yl)-3-methylbutanoyl)-4-hydroxy-N-((S)-1-(4-(4-methylthiazol-5-yl)phenyl)ethyl)pyrrolidine-2-carboxamide], for which the DC50 on SMARCA4 (HT1080 CRISPR knock-in cells) and on SMARCA2 (HT1080 CRISPR knock-in cells) was under 100 nM in each case. The Dmax is 70 to 90% at SMARCA4 and over 90% at SMARCA2.
Consider `Cc1ncsc1-c1ccc([C@H](C)NC(=O)[C@@H]2C[C@@H](O)CN2C(=O)[C@@H](n2cc([C@H](C)N3CCC(c4ccc5c(c4)-n4c(nc(=O)c6c(Cl)cccc64)C5(C)C)CC3)nn2)C(C)(C)C)cc1` [Compound B68, (2S,4R)-1-((S)-2-(4-((S)-1-(4-(4-chloro-7,7-dimethyl-5-oxo-5,7-dihydroindolo[1,2-a]quinazolin-10-yl)piperidin-1-yl)ethyl)-1H-1,2,3-triazol-1-yl)-3,3-dimethylbutanoyl)-4-hydroxy-N-((S)-1-(4-(4-methylthiazol-5-yl)phenyl)ethyl)pyrrolidine-2-carboxamide], for which the DC50 on SMARCA4 (HT1080 CRISPR knock-in cells) is 501 to 1000 nM; on SMARCA2 (HT1080 CRISPR knock-in cells), under 100 nM. Besides, the Dmax on SMARCA4 is under 50%; at SMARCA2, over 90%.
On the same counts, the results for `Cc1ncsc1-c1ccc([C@H](C)NC(=O)[C@@H]2C[C@@H](O)CN2C(=O)[C@@H](n2cc(CN3CCC(c4ccc5c(c4)-n4c(nc(=O)c6c(Cl)cccc64)C5(C)C)CC3)nn2)C(C)(C)C)cc1` [Compound B69, (2S,4R)-1-((S)-2-(4-((4-(4-chloro-7,7-dimethyl-5-oxo-5,7-dihydroindolo[1,2-a]quinazolin-10-yl)piperidin-1-yl)methyl)-1H-1,2,3-triazol-1-yl)-3,3-dimethylbutanoyl)-4-hydroxy-N-((S)-1-(4-(4-methylthiazol-5-yl)phenyl)ethyl)pyrrolidine-2-carboxamide] are 100 to 500 nM, under 100 nM, under 50% and over 90%.
As for `Cc1ncsc1-c1ccc([C@H](C)NC(=O)[C@@H]2C[C@@H](O)CN2C(=O)[C@@H](NC(=O)[C@H]2CC[C@H](CN3CCC(c4ccc5c(c4)-n4c(nc(=O)c6c(Br)cccc64)C5(C)C)CC3)CC2)C(C)(C)C)cc1` [Compound B70, (2S,4R)-1-((S)-2-((11,4S)-4-((4-(4-bromo-7,7-dimethyl-5-oxo-5,7-dihydroindolo[1,2-a]quinazolin-10-yl)piperidin-1-yl)methyl)cyclohexane-1-carboxamido)-3,3-dimethylbutanoyl)-4-hydroxy-N-((S)-1-(4-(4-methylthiazol-5-yl)phenyl)ethyl)pyrrolidine-2-carboxamide], the DC50 on SMARCA4 (HT1080 CRISPR knock-in cells) and at SMARCA2 (HT1080 CRISPR knock-in cells) was under 100 nM in each case. In addition, the Dmax was under 50% at SMARCA4 and over 90% on SMARCA2.
As to `Cc1ncsc1-c1ccc([C@H](C)NC(=O)[C@@H]2C[C@@H](O)CN2C(=O)[C@@H](c2cc(OCCCn3cc(-c4ccc5c(c4)C(C)(C)c4nc(=O)c6c(Cl)cccc6n4-5)cn3)no2)C(C)C)cc1` [Compound B71, (2S,4R)-1-((R)-2-(3-(3-(4-(4-chloro-7,7-dimethyl-5-oxo-5,7-dihydroindolo[1,2-a]quinazolin-9-yl)-1H-pyrazol-1-yl)propoxy)isoxazol-5-yl)-3-methylbutanoyl)-4-hydroxy-N-((S)-1-(4-(4-methylthiazol-5-yl)phenyl)ethyl)pyrrolidine-2-carboxamide], the DC50 is over 1000 nM on SMARCA4 (HT1080 CRISPR knock-in cells) and 100 to 500 nM at SMARCA2 (HT1080 CRISPR knock-in cells). Besides, the results for the Dmax on SMARCA4 and at SMARCA2 were under 50% and 50 to 69%, respectively.
For `Cc1ncsc1-c1ccc([C@H](C)NC(=O)[C@@H]2C[C@@H](O)CN2C(=O)[C@@H](c2cc(OCCCn3cc(-c4ccc5c(c4)-n4c(nc(=O)c6c(Cl)cccc64)C5(C)C)cn3)no2)C(C)C)cc1` [Compound B72, (2S,4R)-1-((R)-2-(3-(3-(4-(4-chloro-7,7-dimethyl-5-oxo-5,7-dihydroindolo[1,2-a]quinazolin-10-yl)-1H-pyrazol-1-yl)propoxy)isoxazol-5-yl)-3-methylbutanoyl)-4-hydroxy-N-((S)-1-(4-(4-methylthiazol-5-yl)phenyl)ethyl)pyrrolidine-2-carboxamide], in that order: under 100 nM, under 100 nM, under 50% and 50 to 69%.
Regarding `Cc1ncsc1-c1ccc([C@H](C)NC(=O)[C@@H]2C[C@@H](O)CN2C(=O)[C@H](C(C)C)n2cc(CCCCN3CCC(c4ccc5c(c4)-n4c(nc(=O)c6c(Cl)cccc64)C5(C)C)CC3)nn2)cc1` [Compound B73, (2S,4R)-1-((S)-2-(4-(4-(4-(4-chloro-7,7-dimethyl-5-oxo-5,7-dihydroindolo[1,2-a]quinazolin-10-yl)piperidin-1-yl)butyl)-1H-1,2,3-triazol-1-yl)-3-methylbutanoyl)-4-hydroxy-N-((S)-1-(4-(4-methylthiazol-5-yl)phenyl)ethyl)pyrrolidine-2-carboxamide], the results for the DC50 at SMARCA4 (HT1080 CRISPR knock-in cells) and at SMARCA2 (HT1080 CRISPR knock-in cells) were 100 to 500 nM and under 100 nM, respectively. The Dmax was 70 to 90% on SMARCA4 and over 90% on SMARCA2.
`CC(C)C(C(=O)N1C[C@H](O)C[C@H]1C(=O)N[C@@H](C)c1ccc(-c2ncnn2C)cc1)c1cc(OCCN2CCC(c3ccc4c(c3)C(C)(C)c3nc(=O)c5c(Cl)cccc5n3-4)CC2)no1` (stereo partly drawn) [Compound B74, (2S,4R)-1-(2-(3-(2-(4-(4-chloro-7,7-dimethyl-5-oxo-5,7-dihydroindolo[1,2-a]quinazolin-9-yl)piperidin-1-yl)ethoxy)isoxazol-5-yl)-3-methylbutanoyl)-4-hydroxy-N-((S)-1-(4-(1-methyl-1H-1,2,4-triazol-5-yl)phenyl)ethyl)pyrrolidine-2-carboxamide]: the DC50 on SMARCA4 (HT1080 CRISPR knock-in cells) is over 1000 nM; on SMARCA2 (HT1080 CRISPR knock-in cells) it was 100 to 500 nM. The Dmax on SMARCA4 and on SMARCA2 was under 50% in each case.
Turning to `CC(C)C(C(=O)N1C[C@H](O)C[C@H]1C(=O)N[C@@H](C)c1ccc(-c2ncnn2C)cc1)c1cc(OCCN2CCC(c3ccc4c(c3)C(C)(C)c3nc(=O)c5c(Cl)cccc5n3-4)CC2)no1` (stereo partly drawn) [Compound B75, (2S,4R)-1-(2-(3-(2-(4-(4-chloro-7,7-dimethyl-5-oxo-5,7-dihydroindolo[1,2-a]quinazolin-9-yl)piperidin-1-yl)ethoxy)isoxazol-5-yl)-3-methylbutanoyl)-4-hydroxy-N-((S)-1-(4-(1-methyl-1H-1,2,4-triazol-5-yl)phenyl)ethyl)pyrrolidine-2-carboxamide], on SMARCA4 (HT1080 CRISPR knock-in cells), the “SMARC A4 HT1080 HiBit Dmax(%)” value was “D (D (<50% degradation))” and the DC50 was in the range of 100 to 500 nM. At SMARCA2 (HT1080 CRISPR knock-in cells), the “SMARC A2 HT1080 HiBit Dmax (%)” value is on record as “B (B (70-90% degradation))” and the DC50 fell in the range of 100 to 500 nM.
As for `Cc1ncsc1-c1ccc([C@H](C)NC(=O)[C@@H]2C[C@@H](O)CN2C(=O)[C@@H](NC(=O)C2CCC(CN3CCC(c4ccc5c(c4)C(C)(C(F)(F)F)c4nc(=O)c6c(Cl)cccc6n4-5)CC3)CC2)C(C)(C)C)cc1` (stereo partly drawn) [Compound B76, (2S,4R)-1-((2S)-2-((1r,4S)-4-((4-(4-chloro-7-methyl-5-oxo-7-(trifluoromethyl)-5,7-dihydroindolo[1,2-a]quinazolin-9-yl)piperidin-1-yl)methyl)cyclohexane-1-carboxamido)-3,3-dimethylbutanoyl)-4-hydroxy-N-((S)-1-(4-(4-methylthiazol-5-yl)phenyl)ethyl)pyrrolidine-2-carboxamide], the DC50 on SMARCA4 (HT1080 CRISPR knock-in cells) and at SMARCA2 (HT1080 CRISPR knock-in cells) was 100 to 500 nM each time. For the same compound, the Dmax on SMARCA4 was under 50%; on SMARCA2, 70 to 90%.
